Experimental data from patent publication US8470889B2 (TRT Pharma Inc., priority 2008, dated 2013).
Where two headings read alike, the source gives them in different places.

What was measured:
[1] = tested on: LNCaP cells; assay: MTT cell growth inhibition, LNCaP;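 also: MTT formazan absorbance at 600 nm read after 72 h of compound exposure, IC50 fitted by nonlinear regression of dose-response curves, samples run in triplicate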
[2] = tested on: C4-2B cells; assay: MTT cell growth inhibition, C4-2B;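 also: cells treated with a dilution series for 72 h, then MTT added and absorbance read at 600 nm, IC50 fitted from dose-response curves by nonlinear regression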
[3] = tested on: 22Rv1 cells; assay: MTT cell growth inhibition, 22Rv1; details: read-out: Cellular IC50 (μM) 22Rv1, MTT
[4] = tested on: PC-3 cells; assay: MTT cell growth inhibition, PC-3
[5] = tested on: MDA PCa 2b cells; assay: MTT cell growth inhibition, MDA PCa 2b; details: MTT;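 also: MDA PCa 2b prostate cancer cells in BRFF-HPC1 with 20% FBS, exposed to compounds for 72 h, viable-cell MTT formazan read as absorbance at 600 nm, 0.5% DMSO vehicle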
Experimental: (§2) MDA PCa 2b was seeded at the same density in medium BRFF-HPC1 (Athena Enzyme Systems, Baltimore, Md., USA) supplemented with 20% FBS. After overnight incubation, the medium was changed to a fresh medium containing different concentrations of test compounds diluted from stock DMSO solution. The final concentration of DMSO is 0.5%. After 72 h of incubation with test compounds, 20 μL of 3-(4,5-dimethyl thiazol-2-yl)-2,5-diphenyltetrazolium bromide (MTT) solution (5 mg/mL in PBS) were added to each well and incubated further for 2 h. Next, the supernatant was aspirated and the MTT formazan formed by metabolically viable cells was dissolved in 100 μL of isopropanol. The plates were mixed for 30 min, and the absorbance was measured at 600 nm on a plate reader (FLUOstar OPTIMA, BMG LabTech). All samples were in triplicate. The IC50 values were determined from dose-response curves by nonlinear regression using PRISM v5.00 (GraphPad Software Inc, La Jolla, Calif., USA).
(§3) The in vitro cytotoxicity of 1-20 were evaluated by MTT assays in a panel of prostate cancer cell lines, including LNCaP, MDA PCa 2b, 22Rv1, C4-2B and PC-3.

[6] = tested on: MDA PCa 2b cells;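 also: MDA PCa 2b prostate cancer cells in BRFF-HPC1 with 20% FBS, exposed to compounds for 72 h, viable-cell MTT formazan read as absorbance at 600 nm, 0.5% DMSO vehicle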
Experimental: as §2, §3

[7] = tested on: LNCaP cells;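 also: MTT formazan absorbance at 600 nm read after 72 h of compound exposure, IC50 fitted by nonlinear regression of dose-response curves, samples run in triplicate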
[8] = tested on: PC-3 cells
[9] = tested on: 22Rv1 cells
[10] = tested on: C4-2B cells;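 also: cells treated with a dilution series for 72 h, then MTT added and absorbance read at 600 nm, IC50 fitted from dose-response curves by nonlinear regression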
[11] = tested on: MCF-7 cells; assay: Growth inhibition, MCF-7 breast cancer cells; assay type: cell-based; details: Homo sapiens, MCF7, read-out: Cytotoxicity, IC50 (μM) MCF-7
Excerpt: (§1) All samples were in triplicate.

[12] = tested on: MDA-MB-231 cells; assay: Growth inhibition, MDA-MB-231 breast cancer cells; assay type: cell-based; details: Homo sapiens, MDA-MB-231
Excerpt: as §1

[13] = tested on: H-1975 cells; assay: Growth inhibition, H-1975 lung cancer cells; assay type: cell-based; details: Homo sapiens, NCI-H1975, read-out: Cytotoxicity, IC50 (μM) H-1975
Excerpt: as §1

[14] = read-out: Cellular IC50 (μM) LNCaP, Table 2, 72 h
[15] = read-out: Cellular IC50 (μM) C4-2B, Table 2, 72 h
[16] = read-out: Cellular IC50 (μM) PC-3, Table 2, 72 h, max tested 50 μM (β-ionone 150 μM)
[17] = read-out: Cellular IC50 (μM) PCa 2b, Table 2, 72 h
[18] = Table 11, read-out: Cytotoxicity, IC50 (μM) MDA-MB231

Question: With `CC1=C(/C=C/C(=O)/C=C/c2cccc(C(F)(F)F)c2)C(C)(C)CCC1O` (centres unmarked) [Compound B45] as the molecule, how does the IC50 ([1]; read-out: Cellular IC50 (μM) LNCaP, Table 8) read?
Answer: 0.74 µM

Question: What about the IC50 ([2]; read-out: Cellular IC50 (μM) C4-2B, Table 8) of the same molecule?
Answer: 1.4 µM

Question: What about the IC50 ([3]; Table 8) of the same molecule?
Answer: 1.7 µM

Question: And the IC50 ([4]; read-out: Cellular IC50 (μM) PC3, Table 8)?
Answer: 3.5 µM

Question: What about the IC50 ([5]; read-out: Cellular IC50 (μM) PCa2b, Table 8) of the same molecule?
Answer: 2.6 µM

Question: How did the IC50 [1, 14] turn out when `CCn1c2ccccc2c2cc(/C=C(\C(=O)/C=C/C3=C(C)CCCC3(C)C)C(=O)/C=C/c3ccc(O)c(OC)c3)ccc21` [Compound 19] was run?
Answer: 2.3 µM

Question: What about the IC50 [2, 15] of the same molecule?
Answer: 2.3 µM

Question: And the IC50 ([3]; Table 2, 72 h)?
Answer: 2.4 µM

Question: And the IC50 [4, 16]?
Answer: 7 µM

Question: What about the IC50 [5, 17] of the same molecule?
Answer: 8.1 µM

Question: `CC1=C(/C=C/C(=O)/C=C/c2cc(C(F)(F)F)ccc2C(F)(F)F)C(C)(C)CCC1O` (racemic) [Compound B27] was tested. Which IC50 [6] did it give?
Answer: 4 µM

Question: And the IC50 [7]?
Answer: 3.2 µM

Question: And the IC50 [8]?
Answer: 1.9 µM

Question: Which results are given for `CC1=C(/C=C/C(=O)/C=C/c2cc(C(F)(F)F)cc(C(F)(F)F)c2)C(C)(C)CCC1O` (racemic) [Compound B28]?
Answer: IC50 [6]: 3.5 µM; IC50 [7]: 2.1 µM; IC50 [8]: 7 µM; IC50 [9]: 2.2 µM

Question: For `CC1=CCCC(C)(C)C1/C=C/C(=O)/C=C/c1cccc(C(F)(F)F)c1` (centres unmarked) [Compound B17, (1E,4E)-1-(3-(trifluoromethyl)phenyl)-5-(2,6,6-trimethylcyclohex-2-enyl)penta-1,4-dien-3-one], which IC50 ([10]; human, 72 h) is on record?
Answer: 4.4 µM

Question: What about the IC50 ([6]; human, 72 h) of the same molecule?
Answer: 4.4 µM

Question: And the IC50 ([7]; human, 72 h)?
Answer: 1 µM

Question: And the IC50 ([8]; human, 72 h)?
Answer: 5.2 µM

Question: What about the IC50 ([9]; human, 72 h) of the same molecule?
Answer: 2.9 µM

Question: With `COc1cc(/C=C/C(=O)CC(=O)/C=C/c2ccc(O)c(OC)c2)ccc1O` [Curcumin, reference compound] as the molecule, how does the IC50 [1, 14] read?
Answer: 8.5 µM

Question: And the IC50 ([11]; Table 10)?
Answer: 13.6 µM

Question: And the IC50 [2, 15]?
Answer: 6.1 µM

Question: What about the IC50 ([3]; Table 2, 72 h) of the same molecule?
Answer: 18.3 µM

Question: What about the IC50 [4, 16] of the same molecule?
Answer: 16.8 µM

Question: And the IC50 ([12]; Table 10, read-out: Cytotoxicity, IC50 (μM) MDA-M B231)?
Answer: 15.7 µM

Question: What about the IC50 ([13]; Table 10) of the same molecule?
Answer: > 25 µM

Question: For `CC(=O)N1N=C(/C=C/C2C(C)=CCCC2(C)C)CC1c1ccccc1C(F)(F)F` (centres unmarked) [Compound C6], which IC50 ([10]; human, 72 h) is on record?
Answer: 16.6 µM

Question: What about the IC50 ([11]; Table 11) of the same molecule?
Answer: 18.3 µM

Question: And the IC50 ([7]; human, 72 h)?
Answer: 18.2 µM

Question: And the IC50 [12, 18]?
Answer: 15.4 µM

Question: What about the IC50 ([13]; Table 11) of the same molecule?
Answer: 18.3 µM

Question: For `CC(=O)N1N=C(/C=C/C2=C(C)C(O)CCC2(C)C)CC1c1cccc(C(F)(F)F)c1` (centres unmarked) [Compound C4], which IC50 ([10]; human, 72 h) is on record?
Answer: 17.8 µM

Question: And the IC50 ([11]; Table 11)?
Answer: > 25 µM

Question: What about the IC50 ([7]; human, 72 h) of the same molecule?
Answer: 35.4 µM

Question: What about the IC50 ([8]; human, 72 h) of the same molecule?
Answer: 47 µM

Question: And the IC50 [12, 18]?
Answer: > 25 µM

Question: What about the IC50 ([13]; Table 11) of the same molecule?
Answer: > 25 µM

Question: Which IC50 [1, 14] does the source give for `CCOc1ccc(C=CC(=O)C(=Cc2ccc(OCC)c(OCC)c2)C(=O)C=CC2=C(C)CCCC2(C)C)cc1OCC` [Compound 13] here?
Answer: 14.9 µM

Question: And the IC50 [4, 16]?
Answer: 14.1 µM

Question: What about the IC50 [5, 17] of the same molecule?
Answer: 6.8 µM

Question: With `CC1=C(/C=C/C(=O)/C=C/c2ccccc2)C(C)(C)CCC1O` (racemic) [Compound B23] as the molecule, how does the IC50 [10] read?
Answer: 1.8 µM

Question: What about the IC50 [6] of the same molecule?
Answer: 12.6 µM

Question: And the IC50 [7]?
Answer: 5.8 µM

Question: And the IC50 [8]?
Answer: 15.5 µM

Question: What about the IC50 [9] of the same molecule?
Answer: 8 µM

Question: `CC1=CCCC(C)(C)C1/C=C/C1=NNC(c2cccc(C(F)(F)F)c2)C1` (centres unmarked) [Compound C5] was tested. Which IC50 ([10]; human, 72 h) did it give?
Answer: 5.7 µM

Question: What about the IC50 ([11]; Table 11) of the same molecule?
Answer: 17.6 µM

Question: And the IC50 ([7]; human, 72 h)?
Answer: 10.9 µM

Question: What about the IC50 [12, 18] of the same molecule?
Answer: 15.8 µM

Question: And the IC50 ([13]; Table 11)?
Answer: 19.2 µM

Question: Which IC50 [10] does the source give for `CC1=C(/C=C/C(=O)/C=C/c2ccc(F)cc2)C(C)(C)CCC1O` (racemic) [Compound B31] here?
Answer: 4 µM

Question: And the IC50 [7]?
Answer: 3.9 µM

Question: What about the IC50 [8] of the same molecule?
Answer: 6.2 µM

Question: And the IC50 [9]?
Answer: 7.5 µM

Question: For `CC1=CCCC(C)(C)C1/C=C/C(=O)/C=C/c1ccc(C(F)(F)F)cc1` (racemic) [Compound B18], which IC50 [10] is on record?
Answer: 5.2 µM

Question: And the IC50 [6]?
Answer: 7 µM

Question: What about the IC50 [7] of the same molecule?
Answer: 4.7 µM

Question: What about the IC50 [8] of the same molecule?
Answer: 7.9 µM

Question: And the IC50 [9]?
Answer: 3.3 µM

Question: Which results are given for `CC1=C(/C=C/C(=O)/C=C/c2cccc([N+](=O)[O-])c2)C(C)(C)CCC1O` (racemic) [Compound B40]?
Answer: IC50 [6]: 6 µM; IC50 [7]: 2 µM; IC50 [8]: 5.8 µM; IC50 [9]: 1.9 µM

Question: With `CC1=C(/C=C/C(=O)/C=C/c2cccc(C)c2)C(C)(C)CCC1O` (racemic) [Compound B38] as the molecule, how does the IC50 [6] read?
Answer: 19 µM

Question: And the IC50 [7]?
Answer: 4.1 µM

Question: And the IC50 [8]?
Answer: 6.2 µM

Question: And the IC50 [9]?
Answer: 4.4 µM

Question: Which IC50 ([11]; Table 11) does the source give for `CC(=O)N1N=C(/C=C/C2C(C)=CCCC2(C)C)CC1c1ccccc1F` (centres unmarked) [Compound C1] here?
Answer: 25.3 µM

Question: And the IC50 ([7]; human, 72 h)?
Answer: 17.1 µM

Question: What about the IC50 [12, 18] of the same molecule?
Answer: 20.4 µM

Question: What about the IC50 ([13]; Table 11) of the same molecule?
Answer: 23.7 µM
